The values below come from patent US10021861B2, “Genetically modified non-human animals and methods relating to innate immune system response detection” (The Jackson Laboratory, priority 2013, dated 2018).

Marks after values point to notes of the source that are not given here.

What all share (assay type): in vivo
In assay [1] the test system is mouse innate immune cells. Put plainly: CD40 and CD86 expression on mouse innate immune cells from spleen of NSG-TLR4^null mice (flow cytometry). The protocol:
(§1) (San Jose, Calif.), eBiosciences (San Diego, Calif.) or BioLegend, (San Diego, Calif.). […] Single-cell suspensions of bone marrow (BM) and spleen were prepared from engrafted mice, and whole blood was collected in heparin. Single cell suspensions of 1×10^6 cells in 50 μL or 100 μL of whole blood were washed with FACS buffer (PBS supplemented with 2% fetal bovine serum, (HyClone, Logan, Utah) and 0.02% sodium azide (Sigma, St. Louis, Mo.)) and then pre-incubated with rat anti-mouse FcR11b (clone 2.4G2, BD Biosciences) to block Fc binding. Specific antibodies were then added to the samples and incubated for 30 min at 4° C. Stained samples were then washed and fixed with 2% paraformaldehyde for cell suspensions or treated with BD FACS lysing solution for whole blood. At least 50,000 events were acquired on LSRII or FACSCalibur instruments (BD Biosciences). Data analysis was performed with FlowJo (Tree Star, Inc., Ashland, Oreg.) software. Ultra Pure lipopolysaccharide (LPS, E. coli 0111:B4 strain), and polyinosinic-polycytidylic (poly(I:C), high molecular weight, HMW) were purchased from Invivogen (San Diego, Calif.). The indicated mice were injected intraperitoneally (IP) with 100 μg of either LPS or poly(I:C). To confirm that NSG-TLR4^null mice are unable to respond to TLR4 agonists, NSG and NSG-TLR4^null mice were treated with LPS and the ability of innate immune cells to increase expression of phenotypic markers (Table I) and produce cytokines (FIG. 2) was evaluated.

For assay [2], the system named is mouse innate immune cells. Put plainly: CD40 and CD86 expression on mouse innate immune cells from spleen of NSG mice (flow cytometry). As to conditions: 100 μg IP, 24 hours. The protocol: as §1
The test system of assay [3] is mouse innate immune cells. Put plainly: Mouse serum cytokines by cytometric bead array in NSG-TLR4^null mice (unmanipulated or HSC-engrafted). As to conditions: in both NSG and NSG-TLR4^null mice, 100 μg IP, 24 hours.
The mark [4] stands for this setting: NSG-TLR4^null mice, 100 μg IP, 24 hours, spleen.

Consider polyinosinic-polycytidylic [poly(IC)], for which, in assay [1] (setting [4]), the “CD40 Expression, CD11b+ Macrophage” value worked out at 4168 ± 104; the “CD40 Expression, CD11c+/CD11b+ DC” value is reported as 5035 ± 3278^b; the “CD40 Expression, CD11c+/CD11b− DC” value is recorded as 16160 ± 3782^b; the “CD86 Expression, CD11b+ Macrophage” value was 77.77 ± 15.96. For the same substance, in assay [1] (setting [4]), the “CD86 Expression, CD11c+/CD11b+ DC” value is reported as 635 ± 57.7^b and the “CD86 Expression, CD11c+/CD11b− DC” value is 1315 ± 82^b. The “induced increases in the expression of CD40 and CD86 on mouse innate immune cells” value in assay [1] (between NSG and NSG-TLR4^null mice) was “similar”. In assay [2], the “CD40 Expression, CD11b+ Macrophage” value is listed as 3909 ± 377; the “CD40 Expression, CD11c+/CD11b+ DC” value is recorded as 6860 ± 1276^b; the “CD40 Expression, CD11c+/CD11b− DC” value is listed as 19935 ± 1020^b; the “CD86 Expression, CD11b+ Macrophage” value is on record as 68.27 ± 5.93. For the same substance, in assay [2], the “CD86 Expression, CD11c+/CD11b+ DC” value is on record as 540.3 ± 40^b and the “CD86 Expression, CD11c+/CD11b− DC” value was 1111 ± 141^c. Moreover, the mouse cytokine response entry in assay [3] is “similar”.
